Source: article PMC9186362, “Design and biological evaluation of substituted 5,7-dihydro-6H-indolo[2,3-c]quinolin-6-one as novel selective Haspin inhibitors” (Journal of Enzyme Inhibition and Medicinal Chemistry, 2022)

Key:
Assay in all cases: SelectScreen ZLYTE
Format in all cases: biochemical
[1] = target: T1, ERBB2 (HER2) (Homo sapiens, UniProt P04626); details: ATP Km, read-out: Percentage of inhibition
T1 construct: purchased Life Technologies
Method: (§1) We further evaluated the selectivity profile of compound 55 on a larger panel of kinases (SelectScreen Whole Panel, Life Technologies). The inhibition profile of 55, evaluated at 1 μM, is depicted on a dendrogram on Figure 3 where kinases inhibited by a minimum of 80% are shown. A full list of the kinases tested is shown on Table S1 in supplementary information.

[2] = target: T2, GRK5 (Homo sapiens, UniProt P34947); details: ATP Km, read-out: Percentage of inhibition
T2 construct: purchased Life Technologies (SelectScreen Whole Panel service)
Method: as §1

[3] = target: PAK2 (PAK65) (Homo sapiens, UniProt Q13177); details: ATP Km, read-out: Percentage of inhibition
Method: as §1

[4] = target: T3, CDC42 BPG (MRCKG) (Homo sapiens, UniProt Q6DT37); details: ATP Km, read-out: Percentage of inhibition
T3 construct: purchased Life Technologies (SelectScreen Whole Panel service)
Method: as §1

[5] = target: ABL1 F317I (Homo sapiens, UniProt P00519, F317I); details: ATP Km, read-out: Percentage of inhibition
Method: as §1

[6] = target: T4, EPHA1 (Homo sapiens, UniProt P21709); details: ATP Km, read-out: Percentage of inhibition
T4 construct: purchased Life Technologies
Method: as §1

[7] = target: T5, PEAK1 (Homo sapiens, UniProt Q9H792); details: ATP Km, read-out: Percentage of inhibition
T5 construct: purchased Life Technologies (SelectScreen Whole Panel)
Method: as §1

[8] = target: T6, DNA-PK (Homo sapiens, UniProt P78527); details: ATP Km, read-out: Percentage of inhibition
T6 construct: purchased Life Technologies (SelectScreen Whole Panel)
Method: as §1

[9] = target: DCAMKL2 (DCK2) (Homo sapiens, UniProt Q8N568); details: ATP Km, read-out: Percentage of inhibition
Method: as §1

[10] = target: T7, PRKG2 (PKG2) (Homo sapiens, UniProt Q13237); details: ATP Km, read-out: Percentage of inhibition
T7 construct: purchased Life Technologies
Method: as §1

[11] = target: T8, FGFR1 (Homo sapiens, UniProt P11362); details: ATP Km, read-out: Percentage of inhibition
T8 construct: purchased Life Technologies
Method: as §1

[12] = target: T9, CSK (Homo sapiens, UniProt P41240); details: ATP Km, read-out: Percentage of inhibition
T9 construct: purchased Life Technologies (SelectScreen)
Method: as §1

[13] = target: T10, FRK (PTK5) (Homo sapiens, UniProt P42685); details: ATP Km, read-out: Percentage of inhibition
T10 construct: purchased Life Technologies
Method: as §1

[14] = target: T11, FGR (Homo sapiens, UniProt P09769); details: ATP Km, read-out: Percentage of inhibition
T11 construct: purchased Life Technologies (SelectScreen service)
Method: as §1

[15] = target: T12, PIM2 (Homo sapiens, UniProt Q9P1W9); details: ATP Km, read-out: Percentage of inhibition
T12 construct: purchased Life Technologies (SelectScreen Whole Panel service)
Method: as §1

[16] = target: EPHB4 (Homo sapiens, UniProt P54760); details: ATP Km, read-out: Percentage of inhibition
Method: as §1

[17] = target: T13, GRK7 (Homo sapiens, UniProt Q8WTQ7); details: ATP Km, read-out: Percentage of inhibition
T13 construct: purchased Life Technologies (SelectScreen service)
Method: as §1

[18] = target: BMX (Homo sapiens, UniProt P51813); details: ATP Km, read-out: Percentage of inhibition
Method: as §1

[19] = target: T14, CDK5/p35 (Homo sapiens, UniProt Q00535); details: ATP Km, read-out: Percentage of inhibition
T14 construct: purchased Life Technologies
Method: as §1

[20] = target: T15, BRSK1 (SAD1) (Homo sapiens, UniProt Q8TDC3); details: ATP Km, read-out: Percentage of inhibition
T15 construct: purchased Life Technologies (SelectScreen Whole Panel service)
Method: as §1

[21] = target: T16, PDGFRA (PDGFR alpha) (Homo sapiens, UniProt P16234); details: ATP Km, read-out: Percentage of inhibition
T16 construct: purchased Life Technologies (SelectScreen Whole Panel service)
Method: as §1

[22] = target: T17, IKBKB (IKK beta) (Homo sapiens, UniProt O14920); details: ATP Km, read-out: Percentage of inhibition
T17 construct: purchased Life Technologies (SelectScreen Whole Panel)
Method: as §1

[23] = target: T18, EPHB3 (Homo sapiens, UniProt P54753); details: ATP Km, read-out: Percentage of inhibition
T18 construct: purchased Life Technologies (SelectScreen Whole Panel)
Method: as §1

[24] = target: HIPK1 (Myak) (Homo sapiens, UniProt Q86Z02); details: ATP Km, read-out: Percentage of inhibition
Method: as §1

[25] = target: T19, PIM1 (Homo sapiens, UniProt P11309); details: ATP Km, read-out: Percentage of inhibition
T19 construct: purchased Life Technologies (SelectScreen service)
Method: as §1

[26] = target: T20, AURKC (Aurora C) (Homo sapiens, UniProt Q9UQB9); details: ATP Km, read-out: Percentage of inhibition
T20 construct: purchased Life Technologies (SelectScreen Whole Panel service)
Method: as §1

[27] = target: CSNK2A1 (CK2 alpha 1) (Homo sapiens, UniProt P68400); details: ATP Km, read-out: Percentage of inhibition
Method: as §1

[28] = target: CDC42 BPA (MRCKA) (Homo sapiens, UniProt Q5VT25); details: ATP Km, read-out: Percentage of inhibition
Method: as §1

[29] = target: EGFR (ErbB1) T790M L858R (Homo sapiens, UniProt P00533, L858R/T790M); details: ATP Km, read-out: Percentage of inhibition
Method: as §1

[30] = target: MAP3K9 (MLK1) (Homo sapiens, UniProt P80192); details: ATP Km, read-out: Percentage of inhibition
Method: as §1

[31] = target: MYLK2 (skMLCK) (Homo sapiens, UniProt Q9H1R3); details: ATP Km, read-out: Percentage of inhibition
Method: as §1

[32] = target: SGK2 (Homo sapiens, UniProt Q9HBY8); details: ATP Km, read-out: Percentage of inhibition
Method: as §1

[33] = target: T21, CAMK2D (CaMKII delta) (Homo sapiens, UniProt Q13557); details: ATP Km, read-out: Percentage of inhibition
T21 construct: purchased Life Technologies (SelectScreen Whole Panel)
Method: as §1

[34] = target: T22, PDK1 Direct (Homo sapiens, UniProt O15530); details: ATP Km, read-out: Percentage of inhibition
T22 construct: purchased Life Technologies (SelectScreen Whole Panel service)
Method: as §1

[35] = target: T23, FGFR3 (Homo sapiens, UniProt P22607); details: ATP Km, read-out: Percentage of inhibition
T23 construct: purchased Life Technologies
Method: as §1

[36] = target: T24, PRKG1 (Homo sapiens, UniProt Q13976); details: ATP Km, read-out: Percentage of inhibition
T24 construct: purchased Life Technologies (SelectScreen Whole Panel service)
Method: as §1

[37] = target: PRKCZ (PKC zeta) (Homo sapiens, UniProt Q05513); details: ATP Km, read-out: Percentage of inhibition
Method: as §1

[38] = target: T25, MAPK10 (JNK3) (Homo sapiens, UniProt P53779); details: ATP 100 µM, read-out: Percentage of inhibition
T25 construct: purchased Life Technologies
Method: as §1

[39] = target: T26, ABL2 (Arg) (Homo sapiens, UniProt P42684); details: ATP Km, read-out: Percentage of inhibition
T26 construct: purchased Life Technologies (SelectScreen service)
Method: as §1

T5 sequence (Q9H792 whole entry): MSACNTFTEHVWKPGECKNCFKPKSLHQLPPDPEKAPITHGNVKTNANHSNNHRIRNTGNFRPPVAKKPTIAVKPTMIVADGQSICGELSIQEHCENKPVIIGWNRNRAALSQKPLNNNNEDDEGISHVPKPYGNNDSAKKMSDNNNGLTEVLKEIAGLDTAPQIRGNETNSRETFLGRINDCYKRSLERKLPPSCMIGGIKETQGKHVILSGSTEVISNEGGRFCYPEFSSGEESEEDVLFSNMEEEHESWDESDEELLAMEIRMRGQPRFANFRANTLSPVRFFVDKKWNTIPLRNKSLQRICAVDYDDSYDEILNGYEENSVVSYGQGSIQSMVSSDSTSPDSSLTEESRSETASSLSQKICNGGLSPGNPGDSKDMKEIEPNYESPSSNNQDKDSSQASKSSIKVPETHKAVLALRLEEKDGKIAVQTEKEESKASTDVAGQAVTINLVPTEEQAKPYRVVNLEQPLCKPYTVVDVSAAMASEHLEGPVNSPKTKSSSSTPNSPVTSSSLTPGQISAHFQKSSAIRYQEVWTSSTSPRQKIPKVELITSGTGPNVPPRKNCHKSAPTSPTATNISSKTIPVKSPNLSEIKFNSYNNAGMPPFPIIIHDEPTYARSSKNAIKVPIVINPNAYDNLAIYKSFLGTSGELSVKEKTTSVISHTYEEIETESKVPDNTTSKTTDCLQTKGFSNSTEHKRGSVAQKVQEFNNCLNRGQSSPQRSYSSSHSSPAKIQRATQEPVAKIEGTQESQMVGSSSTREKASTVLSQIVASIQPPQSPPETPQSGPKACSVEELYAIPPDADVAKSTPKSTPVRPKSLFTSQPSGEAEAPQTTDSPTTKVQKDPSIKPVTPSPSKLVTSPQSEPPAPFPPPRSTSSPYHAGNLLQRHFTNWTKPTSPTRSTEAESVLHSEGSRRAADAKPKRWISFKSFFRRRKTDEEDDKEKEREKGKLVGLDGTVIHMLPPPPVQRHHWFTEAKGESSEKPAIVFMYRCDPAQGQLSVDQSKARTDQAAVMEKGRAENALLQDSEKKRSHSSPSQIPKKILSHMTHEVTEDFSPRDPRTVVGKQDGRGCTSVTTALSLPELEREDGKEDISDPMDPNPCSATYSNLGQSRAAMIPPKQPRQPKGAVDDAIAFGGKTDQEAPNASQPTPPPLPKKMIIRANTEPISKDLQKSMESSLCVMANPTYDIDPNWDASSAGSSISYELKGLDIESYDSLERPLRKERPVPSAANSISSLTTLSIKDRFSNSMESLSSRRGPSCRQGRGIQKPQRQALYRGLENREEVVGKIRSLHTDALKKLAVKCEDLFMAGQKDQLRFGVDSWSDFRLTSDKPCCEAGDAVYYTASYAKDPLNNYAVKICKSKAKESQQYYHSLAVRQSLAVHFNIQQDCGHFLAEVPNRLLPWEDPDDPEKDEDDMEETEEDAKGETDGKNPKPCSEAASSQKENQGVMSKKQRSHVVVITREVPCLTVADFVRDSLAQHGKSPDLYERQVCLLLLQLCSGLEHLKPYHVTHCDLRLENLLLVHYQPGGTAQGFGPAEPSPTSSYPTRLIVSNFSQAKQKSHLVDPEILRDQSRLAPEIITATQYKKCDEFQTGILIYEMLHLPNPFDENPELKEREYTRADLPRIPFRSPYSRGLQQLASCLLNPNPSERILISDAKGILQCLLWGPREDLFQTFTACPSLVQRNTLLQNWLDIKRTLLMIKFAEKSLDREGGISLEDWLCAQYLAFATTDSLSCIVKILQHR
T23 sequence (P22607 23-806): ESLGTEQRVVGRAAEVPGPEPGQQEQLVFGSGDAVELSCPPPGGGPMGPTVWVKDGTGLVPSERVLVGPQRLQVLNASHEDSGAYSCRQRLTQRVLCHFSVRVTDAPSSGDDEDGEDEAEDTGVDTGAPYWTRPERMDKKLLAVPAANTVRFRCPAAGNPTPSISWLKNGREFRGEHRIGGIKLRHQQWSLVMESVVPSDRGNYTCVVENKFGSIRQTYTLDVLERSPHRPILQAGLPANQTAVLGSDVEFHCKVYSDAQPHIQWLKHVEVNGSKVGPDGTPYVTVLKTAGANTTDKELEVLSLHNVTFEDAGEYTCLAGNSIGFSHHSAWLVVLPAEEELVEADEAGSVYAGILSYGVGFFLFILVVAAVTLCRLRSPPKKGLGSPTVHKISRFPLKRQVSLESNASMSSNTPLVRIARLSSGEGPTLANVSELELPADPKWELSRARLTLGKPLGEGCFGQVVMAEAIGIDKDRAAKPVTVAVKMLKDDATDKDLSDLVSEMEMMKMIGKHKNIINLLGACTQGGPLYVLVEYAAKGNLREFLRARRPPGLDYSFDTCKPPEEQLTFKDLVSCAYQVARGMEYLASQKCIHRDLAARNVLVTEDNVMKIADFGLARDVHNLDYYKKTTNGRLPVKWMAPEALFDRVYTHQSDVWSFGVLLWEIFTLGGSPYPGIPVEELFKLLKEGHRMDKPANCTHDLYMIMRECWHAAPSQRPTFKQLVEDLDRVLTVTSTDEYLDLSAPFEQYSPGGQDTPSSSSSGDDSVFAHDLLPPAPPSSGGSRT
Sequence of CSNK2A1 (CK2 alpha 1) (P68400 whole entry): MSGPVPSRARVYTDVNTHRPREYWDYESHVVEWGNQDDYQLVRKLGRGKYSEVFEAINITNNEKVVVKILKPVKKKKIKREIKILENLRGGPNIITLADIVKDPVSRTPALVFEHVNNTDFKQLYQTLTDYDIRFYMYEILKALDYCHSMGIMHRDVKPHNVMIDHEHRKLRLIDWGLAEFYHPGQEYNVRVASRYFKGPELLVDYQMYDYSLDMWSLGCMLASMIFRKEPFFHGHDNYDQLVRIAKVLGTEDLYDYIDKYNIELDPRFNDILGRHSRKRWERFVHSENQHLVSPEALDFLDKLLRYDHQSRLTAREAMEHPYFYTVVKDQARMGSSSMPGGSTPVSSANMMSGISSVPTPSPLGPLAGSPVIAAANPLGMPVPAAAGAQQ
Sequence of ABL1 F317I (P00519 whole entry F317I): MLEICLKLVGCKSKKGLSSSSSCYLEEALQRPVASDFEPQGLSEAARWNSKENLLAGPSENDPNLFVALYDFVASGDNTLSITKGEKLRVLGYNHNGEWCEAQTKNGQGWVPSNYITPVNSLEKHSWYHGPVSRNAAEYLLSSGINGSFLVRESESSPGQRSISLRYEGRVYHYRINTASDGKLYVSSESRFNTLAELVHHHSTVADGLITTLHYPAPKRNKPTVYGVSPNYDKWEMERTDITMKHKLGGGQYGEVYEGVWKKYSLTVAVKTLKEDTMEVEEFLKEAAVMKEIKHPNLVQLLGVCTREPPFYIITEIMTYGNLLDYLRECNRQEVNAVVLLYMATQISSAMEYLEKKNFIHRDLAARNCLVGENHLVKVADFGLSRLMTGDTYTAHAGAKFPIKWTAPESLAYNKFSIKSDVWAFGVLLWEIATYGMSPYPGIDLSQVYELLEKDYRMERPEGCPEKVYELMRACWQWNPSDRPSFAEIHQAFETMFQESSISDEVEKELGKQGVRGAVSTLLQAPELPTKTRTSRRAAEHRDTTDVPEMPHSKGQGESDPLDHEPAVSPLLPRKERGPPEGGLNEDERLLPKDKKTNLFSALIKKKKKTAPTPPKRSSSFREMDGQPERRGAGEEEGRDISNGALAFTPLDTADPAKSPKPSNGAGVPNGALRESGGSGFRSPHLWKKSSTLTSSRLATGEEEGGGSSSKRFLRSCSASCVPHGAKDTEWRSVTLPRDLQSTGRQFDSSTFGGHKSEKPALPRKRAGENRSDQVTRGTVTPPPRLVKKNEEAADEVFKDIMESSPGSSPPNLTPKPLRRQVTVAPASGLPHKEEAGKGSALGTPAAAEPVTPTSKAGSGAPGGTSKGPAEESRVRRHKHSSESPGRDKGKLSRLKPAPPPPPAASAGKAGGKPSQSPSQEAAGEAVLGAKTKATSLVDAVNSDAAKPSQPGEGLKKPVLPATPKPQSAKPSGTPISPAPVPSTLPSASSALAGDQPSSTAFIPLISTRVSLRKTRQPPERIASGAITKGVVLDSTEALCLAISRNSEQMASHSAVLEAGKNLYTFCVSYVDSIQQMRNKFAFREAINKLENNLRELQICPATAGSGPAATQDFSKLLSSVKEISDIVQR
T9 sequence (P41240 whole entry): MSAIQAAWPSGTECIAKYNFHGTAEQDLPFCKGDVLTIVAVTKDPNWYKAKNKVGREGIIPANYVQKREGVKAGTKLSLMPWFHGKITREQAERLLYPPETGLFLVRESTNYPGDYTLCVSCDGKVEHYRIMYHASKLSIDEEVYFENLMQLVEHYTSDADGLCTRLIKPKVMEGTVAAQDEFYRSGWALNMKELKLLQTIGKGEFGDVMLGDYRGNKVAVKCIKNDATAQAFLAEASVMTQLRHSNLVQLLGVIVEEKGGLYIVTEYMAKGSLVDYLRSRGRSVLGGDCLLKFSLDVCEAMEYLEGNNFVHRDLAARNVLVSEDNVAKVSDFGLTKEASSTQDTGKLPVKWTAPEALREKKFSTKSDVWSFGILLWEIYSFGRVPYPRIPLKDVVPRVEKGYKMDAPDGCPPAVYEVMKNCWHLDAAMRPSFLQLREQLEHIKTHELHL
T21 sequence (Q13557 whole entry): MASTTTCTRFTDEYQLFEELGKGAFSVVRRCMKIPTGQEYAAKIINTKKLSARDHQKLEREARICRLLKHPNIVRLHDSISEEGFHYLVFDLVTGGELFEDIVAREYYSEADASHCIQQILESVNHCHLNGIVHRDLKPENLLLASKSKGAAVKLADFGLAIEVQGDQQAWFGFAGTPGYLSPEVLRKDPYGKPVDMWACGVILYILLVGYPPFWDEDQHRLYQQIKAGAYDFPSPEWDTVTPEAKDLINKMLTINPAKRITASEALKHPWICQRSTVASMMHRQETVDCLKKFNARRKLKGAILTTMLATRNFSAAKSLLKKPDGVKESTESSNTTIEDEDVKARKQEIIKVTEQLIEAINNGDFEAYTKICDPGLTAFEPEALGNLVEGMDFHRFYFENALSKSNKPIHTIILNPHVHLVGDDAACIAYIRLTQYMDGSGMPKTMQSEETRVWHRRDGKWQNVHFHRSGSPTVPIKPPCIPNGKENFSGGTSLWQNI

`COc1ccc2[nH]c3c(=O)[nH]c4ccc(O)cc4c3c2c1` [Compound 55, 2-Hydroxy-10-methoxy-5,7-dihydro-6H-indolo[2,3-c]quinolin-6-one] showed an inhibition at 1 µM [1] of 2%, an inhibition at 1 µM [2] of 18% and an inhibition at 1 µM [3] of 6%. For the same compound, the inhibition at 1 µM [4] was 12%, the inhibition at 1 µM [5] was 14% and the inhibition at 1 µM [6] was 33%. The inhibition at 1 µM [7] was 50%, the inhibition at 1 µM [8] was 54% and the inhibition at 1 µM [9] was 6%. The inhibition at 1 µM [10] was 37%, the inhibition at 1 µM [11] was 38% and the inhibition at 1 µM [12] was 9%. The inhibition at 1 µM [13] was 33%, the inhibition at 1 µM [14] was 81% and the inhibition at 1 µM [15] was 18%. It also gave an inhibition at 1 µM [16] of 21%, an inhibition at 1 µM [17] of 74% and an inhibition at 1 µM [18] of 14%. The inhibition at 1 µM [19] was 32%, the inhibition at 1 µM [20] was 45% and the inhibition at 1 µM [21] was 43%. The inhibition at 1 µM [22] was 55%, the inhibition at 1 µM [23] was -9% and the inhibition at 1 µM [24] was 58%. It also gave an inhibition at 1 µM [25] of 71%, an inhibition at 1 µM [26] of 17% and an inhibition at 1 µM [27] of 14%. The inhibition at 1 µM [28] was 13%, the inhibition at 1 µM [29] was 20% and the inhibition at 1 µM [30] was 63%. For the same compound, the inhibition at 1 µM [31] was 61%, the inhibition at 1 µM [32] was 19% and the inhibition at 1 µM [33] was 50%. The inhibition at 1 µM [34] was 17%, the inhibition at 1 µM [35] was 3% and the inhibition at 1 µM [36] was 11%. For the same compound, the inhibition at 1 µM [37] was 7%, the inhibition at 1 µM [38] was 15% and the inhibition at 1 µM [39] was 24%.
